# In EP1568368A1, “Pharmaceutical combination comprising a CDK inhibitor and a VEGF receptor inhibitor” (Schering Aktiengesellschaft, priority 2004, dated 2005):
# System: MaTu estrogen-independent human mammary carcinoma cells
# Assay: MaTu human estrogen-independent mammary carcinoma xenograft model, tumor growth inhibition (tumor area by caliper)
# Type: in vivo, NMRI nude mice
# Parameters: inhibition of the growth of the MaTu xenograft model: dose or concentration left out as unconfirmed
# Settings: monotherapy
# Method: MaTu (EPO-GmbH, Berlin) estrogen-independent human mammary carcinoma cells, obtained from cell culture, were implanted s.c. in the inguinal region of femal NMRI nude mice. Treatment was started when the tumors were approximately 20 mm^2 in size. The groups were closed when the tumors within a treatment group reached a size of approximately 100 mm^2.
# Experimental groups included the following: • 1) Control vehicle • 2) a CDK inhibitor ([…]) • 3) a VEGF-R inhibitor (50 mg/kg, p.o. twice daily, d4-d21) • 4) a CDK inhibitor ([…]) in combination with a VEGF-R inhibitor (50 mg/kg, p.o. twice daily, d4-d21) CDK inhibitor = N-[5-[[[5-(1,1-dimethylethyl)-2-oxazolyl] methyl]thio]-2-thiazolyl]-4-piperidinecarboxamide VEGF-R inhibitor = (4-Chlorophenyl)[4-(4-pyridylmethyl)phthalazin-1-yl]ammonium hydrogen succinate
# Tumor area was determined by caliper measurement twice weekly. The example was designed to determine the initial response of a human estrogen-independent mammary carcinoma xenograft model to treatment with a specific CDK inhibitor, to treatment with a specific VEGF-R inhibitor, and to treatment with a combination of a CDK inhibitor together with a VEGF-R inhibitor. The tumor growth inhibiting effect of the compounds was investigated in the MaTu human estrogen-independent mammary carcinoma model, xenografted in NMRI nude mice. […]
smiles,measurement,setting,value
"Clc1ccc(Nc2nnc(Cc3ccncc3)c3ccccc23)cc1.O=C(O)CCC(=O)O [VEGF-R inhibitor, (4-Chlorophenyl)[4-(4-pyridylmethyl)phthalazin-1-yl]ammonium hydrogen succinate]",inhibition of tumor growth,"50 mg/kg p.o. twice daily, d4-d21, s.c. MaTu xenograft in female NMRI nude mice",initially an inhibition of tumor growth
"CC(C)(C)c1cnc(CSc2cnc(NC(=O)C3CCNCC3)s2)o1 [CDK inhibitor, N-[5-[[[5-(1,1-dimethylethyl)-2-oxazolyl]methyl]thio]-2-thiazolyl]-4-piperidinecarboxamide]",inhibition of the growth of the MaTu xenograft model,"i.p. once daily, d4-d21, s.c. xenograft in female NMRI nude mice",ineffective
